Laboratory results reported in ChEMBL document CHEMBL5226282, “TLR2 Agonistic Small Molecules: Detailed Structure-Activity Relationship, Applications, and Future Prospects” (J Med Chem, 2021).
*1 amine or outer side, *2 acyl side, *3 side chain or, on linkers, in order; H or OH if unused. Where a SMILES comes first, the peptide text is derived from it. [ ]: non-standard residue; d: D form. The star is where a group is joined. X1 = CCCCCCCCCCCCCCCC(=O)OCC(CCCC(N[*:1])C(=O)[*:2])OC(=O)CCCCCCCCCCCCCCC; X2 = CCCCCCCCCCCCCCCC(=O)OCC(C*)OC(=O)CCCCCCCCCCCCCCC; Palmitoyl = CCCCCCCCCCCCCCCC(=O)*

Tests used:
Toll-like receptor 2 [1] = molecular target: T1, Toll-like receptor 2 (Homo sapiens, UniProt O60603); test: Agonist activity at TLR2 (unknown origin)
T1 sequence (O60603 whole entry): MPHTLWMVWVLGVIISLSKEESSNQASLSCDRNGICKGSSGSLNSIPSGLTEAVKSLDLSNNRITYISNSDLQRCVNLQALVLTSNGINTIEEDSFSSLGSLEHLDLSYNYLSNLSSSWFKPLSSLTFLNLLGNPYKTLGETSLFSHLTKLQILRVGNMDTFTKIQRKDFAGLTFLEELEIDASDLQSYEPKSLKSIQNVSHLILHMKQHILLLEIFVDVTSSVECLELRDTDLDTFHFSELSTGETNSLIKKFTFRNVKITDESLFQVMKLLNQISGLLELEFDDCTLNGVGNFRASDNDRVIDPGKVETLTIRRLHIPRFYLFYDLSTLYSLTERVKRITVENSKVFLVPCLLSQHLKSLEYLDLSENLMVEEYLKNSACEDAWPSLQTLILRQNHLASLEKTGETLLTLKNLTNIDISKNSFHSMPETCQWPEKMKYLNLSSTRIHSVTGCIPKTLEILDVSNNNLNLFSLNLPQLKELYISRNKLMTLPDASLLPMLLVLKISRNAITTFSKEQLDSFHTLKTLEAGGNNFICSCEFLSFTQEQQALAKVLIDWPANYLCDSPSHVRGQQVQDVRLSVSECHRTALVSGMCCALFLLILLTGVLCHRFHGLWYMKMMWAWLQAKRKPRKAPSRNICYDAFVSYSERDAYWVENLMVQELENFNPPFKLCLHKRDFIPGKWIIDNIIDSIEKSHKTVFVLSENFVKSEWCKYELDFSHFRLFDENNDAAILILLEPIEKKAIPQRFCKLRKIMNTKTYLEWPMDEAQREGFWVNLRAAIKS

Toll-like receptor 2 [2] = molecular target: T1, Toll-like receptor 2; test: Binding affinity to TLR2 (unknown origin)
Toll-like receptor 2 [3] = molecular target: T1, Toll-like receptor 2; test: Agonist activity at human TLR2 transfected in HEK293 cells relative to control; assay type: cell-based
Toll-like receptor 2 [4] = molecular target: T1, Toll-like receptor 2; test: Agonist activity at human TLR2 transfected in HEK293 cells; assay type: cell-based
Toll-like receptor 1/2 [5] = molecular target: T2, Toll-like receptor 1/2 (Homo sapiens, UniProt O60603+Q15399); test: Agonist activity at TLR2/TLR1 (unknown origin) assessed as induction of IL-8 production relative to control; assay type: protein-complex assay; conditions: filed as agonist
T2 sequence (O60603 whole entry): as above
T2 sequence (Q15399 whole entry): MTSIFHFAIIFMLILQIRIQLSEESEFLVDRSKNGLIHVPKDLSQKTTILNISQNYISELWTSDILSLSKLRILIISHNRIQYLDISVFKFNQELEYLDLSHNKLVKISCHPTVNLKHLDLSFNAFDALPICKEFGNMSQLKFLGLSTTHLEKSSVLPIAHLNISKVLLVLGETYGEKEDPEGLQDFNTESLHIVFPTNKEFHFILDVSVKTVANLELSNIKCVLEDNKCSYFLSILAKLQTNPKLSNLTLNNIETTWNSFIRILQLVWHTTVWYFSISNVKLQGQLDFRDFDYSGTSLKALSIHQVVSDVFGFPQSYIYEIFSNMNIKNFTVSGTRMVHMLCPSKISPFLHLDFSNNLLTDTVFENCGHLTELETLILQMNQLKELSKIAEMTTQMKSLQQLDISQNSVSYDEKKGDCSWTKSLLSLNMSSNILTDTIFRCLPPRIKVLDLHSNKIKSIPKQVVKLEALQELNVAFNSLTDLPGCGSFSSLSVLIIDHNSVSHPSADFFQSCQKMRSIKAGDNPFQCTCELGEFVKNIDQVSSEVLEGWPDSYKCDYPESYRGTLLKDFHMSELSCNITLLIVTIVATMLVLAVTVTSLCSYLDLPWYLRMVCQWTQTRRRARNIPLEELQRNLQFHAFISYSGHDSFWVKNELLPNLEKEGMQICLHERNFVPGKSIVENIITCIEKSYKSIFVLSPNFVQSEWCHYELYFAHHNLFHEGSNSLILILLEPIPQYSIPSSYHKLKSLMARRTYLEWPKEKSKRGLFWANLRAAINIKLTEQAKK

Toll-like receptor 1/2 [6] = molecular target: T2, Toll-like receptor 1/2; test: Agonist activity at TLR2/TLR1 (unknown origin); assay type: protein-complex assay
TLR2/TLR6 (Homo sapiens) = TLR2/TLR6 (Homo sapiens) (UniProt O60603+Q9Y2C9); test: Agonist activity at TLR2/TLR6 (unknown origin) assessed as induction of IL-8 production relative to control; assay type: protein-complex assay

SMILES	EC50 (Toll-like receptor 2 [1]) [nM]	EC50 (Toll-like receptor 2 [3]) [nM]	EC50 (Toll-like receptor 2 [4]) [nM]	also measured
CCCCCCCCCCCCCCCC(=O)OCCSC[C@H](NC(=O)COCC(=O)NCCCOCCOCCOCCCNC)C(=O)NCC(=O)N[C@H](CO)C(=O)COCC(=O)NCCCOCCOCCOCCCN	674			Ki (Toll-like receptor 2 [2]): 22 nM
CCCCCCCCCCCC[C@H](CSC[C@@H](N)C(=O)NCCOCCOCCOCCP(=O)(O)O)OC(=O)NCCCCCCCCCCC		> 100000	> 100000	
CCCCCCCCCCCCCCCC(=O)OCC[C@@H](CS[C@H](N)C(=O)N[C@@H](CO)C(=O)N[C@@H](CCCCN)C(=O)N[C@@H](CCCCN)C(=O)N[C@@H](CCCCN)C(=O)N[C@@H](CCCCN)C(=O)N[C@@H](CO)C(=O)N[C@@H](CC(C)C)C(=O)N[C@@H](CC(C)C)C(=O)N[C@@H](CCSC)C(=O)N[C@@H](Cc1c[nH]c2ccccc12)C(=O)N[C@H](C(=O)N[C@H](C(=O)N[C@@H](CCC(N)=O)C(=O)N[C@H](C(=O)O)C(C)C)[C@@H](C)O)[C@@H](C)CC)OC(=O)CCCCCCCCCCCCCCC	46200			
CCCCCCCCCCCCCCCC(=O)OC[C@H](CS[C@H](N)C(=O)N[C@@H](CO)C(=O)N[C@@H](CCCCN)C(=O)N[C@@H](CCCCN)C(=O)N[C@@H](CCCCN)C(=O)N[C@@H](CCCCN)C(=O)N[C@@H](CO)C(=O)N[C@@H](CC(C)C)C(=O)N[C@@H](CC(C)C)C(=O)N[C@@H](CCSC)C(=O)N[C@@H](Cc1c[nH]c2ccccc12)C(=O)N[C@H](C(=O)N[C@H](C(=O)N[C@@H](CCC(N)=O)C(=O)N[C@H](C(=O)O)C(C)C)[C@@H](C)O)[C@@H](C)CC)OC(=O)CCCCCCCCCCCCCCC	468			
CCCCCCCCCCCCCC(=O)OC[C@H](CSC[C@@H](N)C(=O)NCCOCCOCCOCCP(=O)(O)O)OC(=O)CCCCCCCCCCCCC		6.3	6.3	
CCCCCCCCCCCCCCCCOC[C@H](CSC[C@@H](N)C(=O)NCCOCCOCCOCCP(=O)(O)O)OCCCCCCCCCCCCCCCC		3450	3450	
CCCCCCCCCCCCCCCC(=O)N[C@@H](SC[C@@H](COC(=O)CCCCCCCCCCCCCCC)OC(=O)CCCCCCCCCCCCCCC)C(=O)N[C@@H](CO)C(=O)N[C@@H](CCCCN)C(=O)N[C@@H](CCCCN)C(=O)N[C@@H](CCCCN)C(=O)N[C@@H](CCCCN)C(=O)N[C@@H](CO)C(=O)N[C@@H](CC(C)C)C(=O)N[C@@H](CC(C)C)C(=O)N[C@@H](CCSC)C(=O)N[C@@H](Cc1c[nH]c2ccccc12)C(=O)N[C@H](C(=O)N[C@H](C(=O)N[C@@H](CCC(N)=O)C(=O)N[C@H](C(=O)O)C(C)C)[C@@H](C)O)[C@@H](C)CC	23000			
CCCCCCCCNC(=O)OC[C@H](CSC[C@@H](N)C(=O)NCCOCCOCCOCCP(=O)(O)O)OC(=O)NCCCCCCCC		7030	7030	
CCCCCCCCCCNC(=O)OC[C@H](CSC[C@@H](N)C(=O)NCCOCCOCCOCCP(=O)(O)O)OC(=O)NCCCCCCCCCC		820	820	
CCCCCCCCCCCCCCCC(=O)N[C@H](CSC[C@@H](COC(=O)NCCCCCCCCCC)OC(=O)NCCCCCCCCCC)C(=O)NCCOCCOCCOCCP(=O)(O)O		2640	2640	
CCCCCCCCCCCCCCCC(=O)OCC[C@@H](CS[C@H](NC(C)=O)C(=O)N[C@@H](CO)C(=O)N[C@@H](CCCCN)C(=O)N[C@@H](CCCCN)C(=O)N[C@@H](CCCCN)C(=O)N[C@@H](CCCCN)C(=O)N[C@@H](CO)C(=O)N[C@@H](CC(C)C)C(=O)N[C@@H](CC(C)C)C(=O)N[C@@H](CCSC)C(=O)N[C@@H](Cc1c[nH]c2ccccc12)C(=O)N[C@H](C(=O)N[C@H](C(=O)N[C@@H](CCC(N)=O)C(=O)N[C@H](C(=O)O)C(C)C)[C@@H](C)O)[C@@H](C)CC)OC(=O)CCCCCCCCCCCCCCC	17400			
CCCCCCCCCCCCCCCC(=O)OCCCC[C@H](CS[C@H](N)C(=O)N[C@@H](CO)C(=O)N[C@@H](CCCCN)C(=O)N[C@@H](CCCCN)C(=O)N[C@@H](CCCCN)C(=O)N[C@@H](CCCCN)C(=O)N[C@@H](CO)C(=O)N[C@@H](CC(C)C)C(=O)N[C@@H](CC(C)C)C(=O)N[C@@H](CCSC)C(=O)N[C@@H](Cc1c[nH]c2ccccc12)C(=O)N[C@H](C(=O)N[C@H](C(=O)N[C@@H](CCC(N)=O)C(=O)N[C@H](C(=O)O)C(C)C)[C@@H](C)O)[C@@H](C)CC)OC(=O)CCCCCCCCCCCCCCC	304			
CCCCCCCCCCNC(=O)OC[C@H](CSC[C@@H](NC(C)=O)C(=O)NCCOCCOCCOCCP(=O)(O)O)OC(=O)NCCCCCCCCCC		830	830	
CCCCCCCCCCNC(=O)OC[C@H](CSC[C@@H](NC(=O)CCCCC)C(=O)NCCOCCOCCOCCP(=O)(O)O)OC(=O)NCCCCCCCCCC		830	830	
CCCCCCCCCCCCCCCC(=O)OC[C@H](CS[C@H](NC(C)=O)C(=O)N[C@@H](CO)C(=O)N[C@@H](CCCCN)C(=O)N[C@@H](CCCCN)C(=O)N[C@@H](CCCCN)C(=O)N[C@@H](CCCCN)C(=O)N[C@@H](CO)C(=O)N[C@@H](CC(C)C)C(=O)N[C@@H](CC(C)C)C(=O)N[C@@H](CCSC)C(=O)N[C@@H](Cc1c[nH]c2ccccc12)C(=O)N[C@H](C(=O)N[C@H](C(=O)N[C@@H](CCC(N)=O)C(=O)N[C@H](C(=O)O)C(C)C)[C@@H](C)O)[C@@H](C)CC)OC(=O)CCCCCCCCCCCCCCC	281			
CCCCCCCCCCCCCCCC(=O)N[C@@H](CSCC(COC(=O)CCCCCCCCCCCCCCC)OC(=O)CCCCCCCCCCCCCCC)C(=O)N[C@@H](CCCNC(=N)N)C(=O)N1CCC[C@H]1C(=O)N[C@@H](CC(=O)O)C(=O)N[C@@H](CCCNC(=N)N)C(=O)N[C@@H](Cc1ccc(O)cc1)C(N)=O (some centres not stated) (Palmitoyl-C(X2)RPDRY-NH2)				Activity (Toll-like receptor 1/2 [5]): 112%
CCCCCCCC(=O)OC[C@H](CSC[C@@H](N)C(=O)NCCOCCOCCOCCP(=O)(O)O)OC(=O)CCCCCCC		3040	3040	
CCCCCCCCCCCCCCCC(=O)N[C@H](CSC[C@@H](COC(=O)CCCCCCCCCCC)OC(=O)CCCCCCCCCCC)C(=O)NCCOCCOCCOCCP(=O)(O)O		> 100000	> 100000	
CCCCCCCCCCCCCCCC(=O)OC[C@H](CSC[C@H](NC(=O)COCC(=O)NCCCOCCOCCOCCCNC(C)=O)C(=O)NCC(=O)N[C@H](CO)C(=O)COCC(=O)NCCCOCCOCCOCCCN)OC(=O)CCCCCCCCCCCCCCC	20			Ki (Toll-like receptor 2 [2]): 91 nM
CCCCCCCCCCCCCCCC(=O)OCC[C@H](CS[C@H](NC(C)=O)C(=O)N[C@@H](CO)C(=O)N[C@@H](CCCCN)C(=O)N[C@@H](CCCCN)C(=O)N[C@@H](CCCCN)C(=O)N[C@@H](CCCCN)C(=O)N[C@@H](CO)C(=O)N[C@@H](CC(C)C)C(=O)N[C@@H](CC(C)C)C(=O)N[C@@H](CCSC)C(=O)N[C@@H](Cc1c[nH]c2ccccc12)C(=O)N[C@H](C(=O)N[C@H](C(=O)N[C@@H](CCC(N)=O)C(=O)N[C@H](C(=O)O)C(C)C)[C@@H](C)O)[C@@H](C)CC)OC(=O)CCCCCCCCCCCCCCC	1160			
CCCCCCCCCCCCCCCC(=O)OCCC[C@H](CS[C@H](N)C(=O)N[C@@H](CO)C(=O)N[C@@H](CCCCN)C(=O)N[C@@H](CCCCN)C(=O)N[C@@H](CCCCN)C(=O)N[C@@H](CCCCN)C(=O)N[C@@H](CO)C(=O)N[C@@H](CC(C)C)C(=O)N[C@@H](CC(C)C)C(=O)N[C@@H](CCSC)C(=O)N[C@@H](Cc1c[nH]c2ccccc12)C(=O)N[C@H](C(=O)N[C@H](C(=O)N[C@@H](CCC(N)=O)C(=O)N[C@H](C(=O)O)C(C)C)[C@@H](C)O)[C@@H](C)CC)OC(=O)CCCCCCCCCCCCCCC	383			
CCCCCCCCCCCCOC[C@H](CSC[C@@H](N)C(=O)NCCOCCOCCOCCP(=O)(O)O)OCCCCCCCCCCCC		550	550	
CCCCCCCCCCCCCCCC(=O)N[C@@H](CSCC(COC(=O)CCCCCCCCCCCCCCC)OC(=O)CCCCCCCCCCCCCCC)C(=O)N[C@@H](CCC(N)=O)C(=O)N1CCC[C@H]1C(=O)N[C@@H](CC(=O)O)C(=O)N[C@@H](CCCNC(=N)N)C(=O)N[C@@H](Cc1ccc(O)cc1)C(N)=O (some centres not stated) (Palmitoyl-C(X2)QPDRY-NH2)				Activity (Toll-like receptor 1/2 [5]): 93%
CNc1ccc([N+](=O)[O-])cc1-n1cnc(-c2ccc(C(F)(F)F)cc2)c1				EC50 (Toll-like receptor 1/2 [6]): 5200 nM
CCCCCCCCCCCCCCCC(=O)NC(CCCC(COC(=O)CCCCCCCCCCCCCCC)OC(=O)CCCCCCCCCCCCCCC)C(=O)N[C@@H](CO)C(=O)N[C@@H](CO)C(=O)N[C@@H](CC(N)=O)C(=O)N[C@@H](C)C(=O)N[C@@H](CO)C(=O)N[C@@H](CCCCN)C(=O)N[C@@H](CCCCN)C(=O)N[C@@H](CCCCN)C(=O)N[C@@H](CCCCN)C(=O)O (some centres not stated) (Palmitoyl-[X1]SSNASKKKK-OH)				Activity (TLR2/TLR6 (Homo sapiens)): 23%
CNc1ccc([N+](=O)[O-])cc1-n1cnc(-c2ccc([N+](=O)[O-])cc2)c1				EC50 (Toll-like receptor 1/2 [6]): 2510 nM
CCCCCCCCCCCCCCCC(=O)OCCCCC[C@H](CS[C@H](N)C(=O)N[C@@H](CO)C(=O)N[C@@H](CCCCN)C(=O)N[C@@H](CCCCN)C(=O)N[C@@H](CCCCN)C(=O)N[C@@H](CCCCN)C(=O)N[C@@H](CO)C(=O)N[C@@H](CC(C)C)C(=O)N[C@@H](CC(C)C)C(=O)N[C@@H](CCSC)C(=O)N[C@@H](Cc1c[nH]c2ccccc12)C(=O)N[C@H](C(=O)N[C@H](C(=O)N[C@@H](CCC(N)=O)C(=O)N[C@H](C(=O)O)C(C)C)[C@@H](C)O)[C@@H](C)CC)OC(=O)CCCCCCCCCCCCCCC	4440			
CCCCCCCCCCCCCCCC(=O)OCCSC[C@H](NC(=O)COCC(=O)NCCCOCCOCCOCCCNc1ccc(C2=C(/C=C/C3=[N+](CC)c4ccccc4C3(C)C)CCC/C2=C\C=C2\N(CCC)c3ccccc3C2(C)C)cc1)C(=O)NCC(=O)N[C@H](CO)C(=O)COCC(=O)NCCCOCCOCCOCCCN				IC50 (Toll-like receptor 2 [1]): 361 nM; Ki (Toll-like receptor 2 [2]): 16 nM
